Results from patent US20120142750A1, “INDOLEAMINE 2,3-DIOXYGENASE PATHWAYS IN THE GENERATION OF REGULATORY T CELLS” (Regents of the University of Minnesota, priority 2005, published 2012).

What was measured:
[1] = system: PDCs and allogeneic naive CD4+ T cells; assay: In vitro priming of naive CD4+ T cells by allogeneic PDCs: CD4+CD25+Foxp3+ Treg generation (flow cytometry); format: cell-based, human; conditions: added to CpG ODN-PDC/naive CD4+ T cell priming cultures; day 7; 1MT 250 μM, Abs 0.1-10 μg/ml
Excerpt: PDC, B, and T cell isolation. Human PBMC were isolated under IRE-approved protocols from apheresis products of healthy blood donors (Memorial Blood Centers of Minnesota, Minneapolis, Minn.) by Ficoll-Paque density gradient centrifugation. Plasmascytoid dendritic cells (PDCs) were isolated from PBMC using BDCA-4 cell isolation kits and the MACS system, followed by staining and sorting to collect purified Lin-CD11c-CD123+ PDCs, as reported previously (Moseman et al., J Immunol 2004; 173:4433-4442). […] cells were isolated from PBMC using CD4 T cell isolation kits followed by positive selection with CD45RA microbeads. […] B cells were isolated from PBMC with CD19 microbeads and the MACS system to greater than 98% purity of CD19+ B cells. All cell isolations kits and microbeads were from Miltenyi Biotec (Bergisch Gladbach, Germany). Reagents. Phosphorothioate-modified type-A CpG ODN 2216: […] NO:2), type-B CpG ODN 2006: […] NO:3) (sequences are shown 5'-3'; small letters represent phosphorothioate linkage; capital letters represent phosphodiester linkage 3' of the base; bold represents CpGdinucleotides) were from Integrated DNA Technologies (Coralville, Iowa), diluted in PBS, and used at a final concentration of 1 microgran per milliliter (μg/ml). […] Kynurenine (L-KYN, Sigma-Aldrich) was used at a final concentration of 50 μM. In vitro priming of naive CD4+ T cells. CD4+CD45RA+ naive T cells were primed with allogeneic PDCs or irradiated B cells (30 Gy) at a 10:1 ratio (e.g., 2×10^6 naive CD4+ T cells plus 2×105 PDCs per well in 24-well plates) with ODN 2216 or ODN 2006 present in RPMI 1640 medium supplemented with 10% human AB serum. 1 MT and/or KYN were added into CpG ODN-PDC or CpG ODN-B cell mediated naive CD4+ T cell priming cultures as indicated. […] After 7 days, primed T cells in cultures were harvested, assessed for their surface phenotype, intracellular Foxp3 expression, and their function in MLR assays. […] Mean fluorescence intensity (MFI) and positive cell percentages of stained cells were determined by flow cytometry.

[2] = system: CHOP in Tregs; assay: Intracellular CHOP expression in Tregs and OT-I cells cultured with TDLN pDCs; format: cell-based, mouse; conditions: 48 hours; with OVA antigen; no bystander cells
Excerpt: Flow cytometry. Details of the staining protocols are given below. For CHOP and Foxp3 staining, assays were set up without the A1 bystander cells, so that the Tregs were the only CD4^+ cells in the system and thus could be unambiguously followed throughout the assay.
FAGS staining. Antibodies were from BD-Pharmingen unless otherwise noted. Anti-mouse CD25-APC conjugate (clone PC61, cat. #17-0251-81) was from eBioscience: This conjugate gave brighter signal and better separation of CD25^+ cells than other conjugates from other suppliers. For intracellular staining of CHOP, live cells were first blocked for 10 minutes with mouse Fc Block (BD Pharmingen) in 10% fetal calf serum medium, stained with anti-CD4-FITC for 30 minutes on ice, washed with PBS, then fixed and permeablized for 20 minutes in 250 ul Cytoperm/Cytofix solution (BD Pharmingen) on ice. All subsequent staining and wash steps were in BD Permwash solution. Fixed cells were stained with 1:100 dilution of monoclonal anti-gadd153/CHOP (sc-7351, Santa Cruz Biotechnology), washed, and stained with secondary monoclonal rat anti-mouse-IgG1-PE (#550083, BD Biosciences). […] For CHOP staining, assays were set up without A1 bystander cells, so that Tregs were the only CD4^+ cells, and thus could be unambiguously followed throughout the assay. […]

[3] = system: Tregs from draining lymph nodes; assay: Adoptive transfer of TDLN DCs and ex-vivo Treg assay; format: in vivo, mouse; conditions: sustained-release pellets; Tregs isolated after four days
Excerpt: Adoptive transfer and ex-vivo Treg assay. The adoptive transfer model has been previously described (Munn et al., Immunit), 2005; 22:633-642; and Munn et al., J. Clin. Invest. 2004a; 114; 280-290). Briefly, DCs were sorted from TDLNs (total CD11c^+ cells), pulsed with […] (SEQ ID NO:1) peptide, and 5×10^4 DCs injected into anteriomedial thigh. For studies measuring ex vivo Treg suppressor activity, the recipient mice were pre-loaded with 5×10^6 sorted CD8^+ T-I cells. After four days, the inguinal LNs draining the site of DC injection were removed, and the CD4^+CD25^+ Tregs were isolated by FACS sorting. A titration of Tregs was added to readout assays, comprising CD4^+ A1 cells, CBA DCs, feeder layer, and H—Y peptide, all as described above. For CFSE proliferation studies, CD8^+ OT-I (wild-type or GCN2-KO background) were sorted, labeled with CFSE, and 5×10^6 cells injected intravenously into wild-type or GCN2-KO recipients. OVA-pulsed DCs from TDLNs were injected as above, and the inguinal (draining) LNs harvested after four days. LN cells were analyzed by FACS for CD8 vs 1B11 vs CFSE.

## Cn1cc(C[C@@H](N)C(=O)O)c2ccccc21 [Inhibitor 1MT, 1-methyl-D-tryptophan]
[1]
  PDC-induced CD4+CD25+Foxp3+ Treg generation, effect of added agent: significantly reduced
[2]
  CHOP induction in Tregs (and OT-I): abrogated
[3]
  ex vivo suppressor activity of Tregs from recipient mice given IDO+ DCs: did not develop ex vivo suppressor activity
